These results are taken from publication PMC11118832 (Biomolecules, 2024).

pEC50, pIC50: −log10 of the molar value. Square brackets hold non-standard residues; d marks the D form. Peptide text beside a SMILES is read from it. pS = N[C@@H](COP(=O)(O)O)C(=O)O; Lys(Me) = CNCCCC[C@H](N)C(=O)O; hLeu = CC(C)CC[C@H](N)C(=O)O Some results are limits rather than exact numbers.

In the first test the target is T1, PD-1/PD-L1 (Homo sapiens, UniProt Q15116).
T1 construct: this kit uses ectodomains of PD-1 and PD-L1 that are expressed with orthogonal fusion tags (Tag-1 and Tag-2); purchased CisBio (currently Perkin-Elmer, Bedford, MA)
Put plainly: In vitro time-resolved FRET PD-1/PD-L1 binding assay (CisBio kit). The following applies: CisBio PD-1/PD-L1 binding kit, TR FRET, 96-well, 4-fold serial dilutions in triplicate, freshly dissolved peptides; read-out: IC50, inhibition of PD-1/PD-L1 binding (TR FRET assay). How it is done:
Commercial PD-1/PD-L1 binding assay kit (CisBio, currently Perkin-Elmer, Bedford, MA) for time resolve fluorescent energy transfer (FRET) was used to assess peptides binding to PD-1. The assay for peptide screening was performed in a 96-well format (normal pressure), starting with 4-fold serial dilutions of each peptide in triplicate. No-peptide triplicate wells were used to assess fluorescent energy transfer in the absence of inhibition, and no-PD-1/PD-L1 triplicate wells were used to assess the background fluorescent energy transfer in the absence of PD-1/PD-L1 complexes. More detailed concentration dependences were obtained for selected peptides. Only freshly dissolved peptides were used in the assay. Various QSAR (quantitative structure activity relationship) hypotheses were tested by synthesizing batches of 10–12 peptides. In total, over one hundred candidates in ten iterations were screened for their ability to inhibit in vitro PD-1/PD-L1 binding using the commercial PD-1/PD-L1 binding assay kit (CisBio, currently Perkin-Elmer). Briefly, this kit uses ectodomains of PD-1 and PD-L1 that are expressed with orthogonal fusion tags (Tag-1 and Tag-2). It also includes two antibodies to selectively interact with these tags. The antibody against one tag is labeled with fluorescent moiety, which serves as a donor, while the other antibody is labeled with fluorescent moiety, which serves as an acceptor in fluorescent resonance energy transfer (FRET). When the complex is formed and probed with both anti-Tag-1 and anti-Tag-2 antibodies, donor and acceptor are sufficiently close, and FRET can be detected in a time-resolved (TR) manner. Inhibitors of PD-1/PD-L1 interactions prevent complex formation, leading to a decrease in TR FRET in a concentration-dependent manner, as shown in Figure 2 for four representative peptide inhibitors. Initial fourfold dilutions are exemplified by data for peptides B5.11 and B5.6 (panels A and B); examples of the more detailed follow-up concentration dependences are shown for peptides B2.4 and B2.22 (panels C and D). The potency of the inhibitors is then characterized by IC50, a concentration that inhibits TR FRET by 50%, allowing for a facile comparison of different inhibitors (Figure 2E).
(In general: Time-resolved FRET reads energy transfer from a long-lived donor to a nearby acceptor.)
As to Ac-DVIDGAAWDYKY-NH2 [B5.11], the pIC50 is 7.30.

Turning to Ac-DVIVGAAWDYKY-NH2 [B3.15], the pIC50 is 6.89.

Still in this test, the particulars now being: CisBio PD-1/PD-L1 binding kit, TR FRET, 96-well, serial dilutions in triplicate; NI = no inhibition at maximum concentration tested (* 5 μM, ** 50 μM); read-out: EC50 (Supplementary Table S1; inhibition of PD-1/PD-L1 binding by in vitro TR-FRET assay).
What is called pEC50 is the EC50 on a negative log10 scale, so that one unit is a factor of ten. Regarding `CC[C@H](C)[C@H](NC(=O)[C@@H](NC(=O)[C@H](CC(C)C)NC(C)=O)C(C)C)C(=O)N[C@H](C(=O)NCC(=O)N[C@@H](C)C(=O)N[C@@H](C)C(=O)N[C@@H](Cc1c[nH]c2ccccc12)C(=O)N[C@@H](COP(=O)(O)O)C(=O)N[C@@H](Cc1ccc(O)cc1)C(=O)N[C@@H](CCCCN)C(=O)N[C@@H](Cc1ccc(O)cc1)C(N)=O)C(C)C` [B6.2] (Ac-LVIVGAAW[pS]YKY-NH2), the pEC50 is < 5.30. With `CC[C@H](C)[C@H](NC(=O)[C@@H](NC(=O)[C@H](CC(=O)O)NC(C)=O)C(C)C)C(=O)N[C@H](C(=O)NCC(=O)N[C@@H](C)C(=O)N[C@@H](C)C(=O)N[C@@H](Cc1c[nH]c2ccccc12)C(=O)N[C@@H](CC(=O)O)C(=O)N[C@@H](CCCCNC)C(=O)N[C@@H](CCCCN)C(=O)N[C@@H](Cc1ccc(O)cc1)C(N)=O)C(C)C` [B6.3] (Ac-DVIVGAAWD[Lys(Me)]KY-NH2), the pEC50 is < 5.30. On the same count and under the same terms, the figure for `CC(=O)N[C@@H](CC(=O)O)C(=O)N[C@H](C(=O)N[C@@H](CCC(C)C)C(=O)N[C@@H](CC(=O)O)C(=O)NCC(=O)N[C@@H](C)C(=O)N[C@@H](C)C(=O)N[C@@H](Cc1c[nH]c2ccccc12)C(=O)N[C@@H](CC(=O)O)C(=O)N[C@@H](Cc1ccc(O)cc1)C(=O)N[C@@H](CCCCN)C(=O)N[C@@H](Cc1ccc(O)cc1)C(N)=O)C(C)C` [B8.14] (Ac-DV[hLeu]DGAAWDYKY-NH2) is < 5.30; for `CC[C@H](C)[C@H](NC(=O)[C@H](CCC(C)C)NC(=O)[C@H](CC(=O)O)NC(C)=O)C(=O)N[C@@H](CC(=O)O)C(=O)NCC(=O)N[C@@H](C)C(=O)N[C@@H](C)C(=O)N[C@@H](Cc1c[nH]c2ccccc12)C(=O)N[C@@H](CC(=O)O)C(=O)N[C@@H](Cc1ccc(O)cc1)C(=O)N[C@@H](CCCCN)C(=O)N[C@@H](Cc1ccc(O)cc1)C(N)=O` [B8.18] (Ac-D[hLeu]IDGAAWDYKY-NH2) it is < 5.30. On the same count and under the same terms, then `CC[C@H](C)[C@H](NC(=O)[C@@H](NC(=O)[C@@H](CC(=O)O)NC(C)=O)C(C)C)C(=O)N[C@@H](CC(=O)O)C(=O)NCC(=O)N[C@@H](C)C(=O)N[C@@H](C)C(=O)N[C@@H](Cc1c[nH]c2ccccc12)C(=O)N[C@@H](CC(=O)O)C(=O)N[C@@H](Cc1ccc(O)cc1)C(=O)N[C@@H](CCCCN)C(=O)N[C@@H](Cc1ccc(O)cc1)C(N)=O` [B8.19] (Ac-[dD]VIDGAAWDYKY-NH2), with < 5.30; and `CC(=O)N[C@H](CC(=O)O)C(=O)N[C@@H](C)C(=O)N[C@@H](Cc1c[nH]c2ccccc12)C(=O)N[C@@H](CC(=O)O)C(=O)N[C@@H](Cc1ccc(O)cc1)C(=O)N[C@@H](CCCCN)C(=O)N[C@@H](Cc1ccc(O)cc1)C(N)=O` [B9.3] (Ac-[dD]AWDYKY-NH2), with < 5.30; and `CC(=O)N[C@H](CCC(=O)O)C(=O)N[C@@H](C)C(=O)N[C@@H](Cc1c[nH]c2ccccc12)C(=O)N[C@@H](CC(=O)O)C(=O)N[C@@H](Cc1ccc(O)cc1)C(=O)N[C@@H](CCCCN)C(=O)N[C@@H](Cc1ccc(O)cc1)C(N)=O` [B9.5] (Ac-[dE]AWDYKY-NH2), with < 5.30.

With `CC(=O)N[C@H](CC(=O)O)C(=O)NCC(=O)N[C@@H](C)C(=O)N[C@@H](C)C(=O)N[C@@H](Cc1c[nH]c2ccccc12)C(=O)N[C@@H](CC(=O)O)C(=O)N[C@@H](Cc1ccc(O)cc1)C(=O)N[C@@H](CCCCN)C(=O)N[C@@H](Cc1ccc(O)cc1)C(N)=O` [B9.8] (Ac-[dD]GAAWDYKY-NH2), the negative logarithm of the EC50 (pEC50) is < 4.30. On the same count and under the same terms, the figure for `CC(=O)N[C@H](CC(=O)O)C(=O)N[C@@H](C)C(=O)N[C@@H](C)C(=O)N[C@@H](Cc1c[nH]c2ccccc12)C(=O)N[C@@H](CC(=O)O)C(=O)N[C@@H](Cc1ccc(O)cc1)C(=O)N[C@@H](CCCCN)C(=O)N[C@@H](Cc1ccc(O)cc1)C(N)=O` [B9.9] (Ac-[dD]AAWDYKY-NH2) is < 5.30; for Ac-AWDYKY-NH2 [B2.19] it is < 4.30. As to Ac-DAAWDYKY-NH2 [B9.1], the pEC50 is < 5.30.

Regarding Ac-DAIDGAAWDYKY-NH2 [B8.2], the pEC50 is < 5.30.

Take Ac-DAWDYKY-NH2 [B9.2]: the pEC50 was < 5.30. Still for that read-out and setting: then Ac-DDIVGAAWDYKY-NH2 [B7.6], with < 5.30; and Ac-DGAAWDYKY-NH2 [B9.0], with < 5.30; and Ac-DIIDGAAWDYKY-NH2 [B8.16], with < 5.30. Same read-out and setting: the figure for Ac-DIIVGAAWDYKY-NH2 [B5.10] is < 5.30; for Ac-DLIDGAAWDYKY-NH2 [B8.15] it is < 5.30; for Ac-DVIDGAAHDYKY-NH2 [B8.21] it is < 5.30.

For the compound Ac-DVIDGAAWDRKY-NH2 [B8.22], the pEC50 is < 5.30.

As for Ac-DVIDGAAWDYK-NH2 [B8.24], the pEC50 was < 5.30.

With Ac-DVIDGAAWDYKR-NH2 [B8.23], the negative-log EC50 (pEC50) is < 5.30. The same measure, in the same setting: then Ac-DVIDGAAWDYKY-NH2 [B5.11], with 7.30. Ac-DVIDGAAWDYKYLQ-NH2 [B7.8]: the pEC50 was < 5.30.

In the case of Ac-DVIDGAAWDYKYLT-NH2 [B7.9], the negative logarithm of the EC50 (pEC50) is < 5.30. On the same count and under the same terms, the figure for Ac-DVIDGAAWDYRY-NH2 [B8.7] is 5.17. Still for that read-out and setting: then Ac-DVIDGADWDYKY-NH2 [B8.20], with < 5.30; and Ac-DVIDGPAWDYKY-NH2 [B8.11], with 5.24. Same read-out and setting: the figure for Ac-DVIDPAAWDYKY-NH2 [B8.12] is < 5.30. On to Ac-DVIEGAAWDYKY-NH2 [B8.1], for which the pEC50 is 5.66. Ac-DVINGAAWDYKY-NH2 [B8.4]: the pEC50 was < 5.30. Still for that read-out and setting: the figure for Ac-DVIVGAAWDYKY-NH2 [B3.15] is 6.89. The same measure, in the same setting: then Ac-DVIVGAAWDYKYLQ-NH2 [B7.5], with < 5.30. Take Ac-DVIVGAAWDYKYLT-NH2 [B7.1]: the negative-log EC50 (pEC50) is < 5.30.

Turning to Ac-DVIVGAAWDYKYLY-NH2 [B7.4], the pEC50 was < 5.30. Same read-out and setting: then Ac-DVIVGASWDYKY-NH2 [B7.3], with < 5.30. For Ac-DVIVGSAWDYKY-NH2 [B7.2], the negative logarithm of the EC50 (pEC50) was < 5.30. Still for that read-out and setting: the figure for Ac-DVIYGAAWDYKY-NH2 [B7.10] is < 5.30; for Ac-DVIYGAAWDYKYLT-NH2 [B7.11] it is < 5.30. Same read-out and setting: then Ac-DVLDGAAWDYKY-NH2 [B8.13], with < 5.30; and Ac-DVVDGAAWDYKY-NH2 [B8.3], with < 5.30; and Ac-DVWVGAAWDYKY-NH2 [B5.2], with < 5.30.

Take Ac-DWIVGAAWDYKY-NH2 [B5.13]: the pEC50 is < 5.30. Still for that read-out and setting: the figure for Ac-EAAWDYKY-NH2 [B9.7] is < 4.30. The same measure, in the same setting: then Ac-EAWDYKY-NH2 [B9.4], with < 5.30; and Ac-EGAAWDYKY-NH2 [B9.6], with < 4.30; and Ac-EVIDGAAWDYKY-NH2 [B8.17], with < 5.30. For the compound Ac-EVIVGAAWDYKY-NH2 [B5.12], the pEC50 was < 5.30. On the same count and under the same terms, then “Ac-GADYKRITVKVN-NH2 [PL-120, reference compound]”, with 4.46; and Ac-IVGAAWDYKY-NH2 [B3.1], with < 4.30; and Ac-LEIKGAEWDYKY-NH2 [B3.18], with < 4.30. On the same count and under the same terms, then Ac-LVDVGAAWDYKY-NH2 [B3.16], with < 4.30; and Ac-LVIVGAAWDRKY-NH2 [B3.17], with < 4.30.

On to Ac-LVIVGAAWDYK-NH2 [B3.14], for which the pEC50 is < 5.30.

Take Ac-LVIVGAAWDYKR-NH2 [B3.4]: the pEC50 was 4.68.

For the compound Ac-LVIVGARWDYKR-NH2 [B3.7], the pEC50 was 4.59. Still for that read-out and setting: then Ac-LVIVGPAWDYKY-NH2 [B3.9], with 5.07; and Ac-LVWVGAAWDRKY-NH2 [B3.19], with 5.30. Turning to Ac-LVWVGAAWDYKY-NH2 [B3.2], the pEC50 was < 4.30. On to Ac-NVIDGAAWDYKY-NH2 [B8.5], for which the negative-log EC50 (pEC50) is < 5.30. Same read-out and setting: the figure for Ac-NVIVGAAWDYKY-NH2 [B7.7] is < 5.30. Same read-out and setting: the figure for Ac-RSMISYGGADDYK-NH2 [B1.1] is 4.62; for Ac-RVFVFVGAAWDYKY-NH2 [B2.21] it is 4.90. With Ac-RVKVIVGAAWDYKY-NH2 [B2.11], the pEC50 is 4.26. For Ac-RVLVIVGAALDYKY-NH2 [B2.30], the pEC50 was 4.46.

With Ac-RVLVIVGAAWDYKR-NH2 [B2.7], the pEC50 is 4.26. The same measure, in the same setting: then Ac-RVLVIVGAAWDYKY-NH2 [B2.1], with 4.52. The same measure, in the same setting: the figure for Ac-RVLVWVGAAWDYKY-NH2 [B2.18] is 6.00; for Ac-RVWVIVGAAWDYKY-NH2 [B2.12] it is 4.70.
